Measurements published in US11331369B2, “Endoparasitic depsipeptides” (Zoetis Services LLC, priority 2017, dated 2022).

What was measured:
[1] = test system: 4th stage larvae (L4) of Dirofilaria immitis; assay: Dirofilaria immitis, L4 Stage (DiL4) In Vitro Assay; assay type: cell-based; details: Dirofilaria immitis, 72 h, read-out: DiL4 Minimum Effective Dose (MED), approximately 72 hours incubation; L4 larvae assessed for survival or paralysis
[2] = test system: third stage larvae of Haemonchus contortus; assay: Haemonchus contortus L3 (HcL3) Assay; assay type: cell-based; details: 96 h, read-out: HcL3 Minimum Effective Dose (MED)
[3] = Canine pharmacokinetic (PK) study, single IV or oral dose; details: dog; for Vd / clearance / half-life / Cmax: in vivo; for Vd / clearance / half-life: iv, 0.2 mg/kg; for Cmax: po, 1 mg/kg; for F: oral 1 mg/kg
[4] = test system: microfilariae of Dirofilaria immitis; assay: Dirofilaria immitis, Microfilaria (DiMF) In vitro Assay; assay type: cell-based; details: 72 h, read-out: DiMF Minimum Effective Dose (MED), approximately 72 hours incubation, microfilariae assessed for survival or paralysis

| Compound | minimal effective concentration [1] | minimal effective concentration [2] | Vd [3] | clearance [3] | half-life [3] | Cmax [3] | F [3] | minimal effective concentration [4] |
| --- | --- | --- | --- | --- | --- | --- | --- | --- |
| CC(C)C[C@H]1C(=O)O[C@H](Cc2ccc(Cn3cccn3)cc2)C(=O)N(C)[C@@H](CC(C)C)C(=O)O[C@H](C)C(=O)N(C)[C@@H](CC(C)C)C(=O)O[C@H](Cc2ccc(Cn3cccn3)cc2)C(=O)N(C)[C@@H](CC(C)C)C(=O)O[C@H](C)C(=O)N1C [Example 1b-23, (3S,6R,9S,12R,15S,18R,21S,24R)-3,9,15,21-tetraisobutyl-4,6,10,16,18,22-hexamethyl-12,24-bis[[4-(pyrazol-1-ylmethyl)phenyl]methyl]-1,7,13,19-tetraoxa-4,10,16,22-tetrazacyclotetracosane-2,5,8,11,14,17,20,23-octaone] | 0.0001 to 0.001 µM | ≤ 1 µM | 8.54 L/kg | 14 mL/min/kg | 27 h | 205 ng/mL | 34% |  |
| CC(C)C[C@H]1C(=O)O[C@H](Cc2ccc(Cn3ccc(-c4ccccc4)n3)cc2)C(=O)N(C)[C@@H](CC(C)C)C(=O)O[C@H](C)C(=O)N(C)[C@@H](CC(C)C)C(=O)O[C@H](Cc2ccc(Cn3ccc(-c4ccccc4)n3)cc2)C(=O)N(C)[C@@H](CC(C)C)C(=O)O[C@H](C)C(=O)N1C [Example 1b-68, (3S,6R,9S,12R,15S,18R,21S,24R)-3,9,15,21-tetraisobutyl-4,6,10,16,18,22-hexamethyl-12,24-bis(4-((3-phenyl-1H-pyrazol-1-yl)methyl)benzyl)-1,7,13,19-tetraoxa-4,10,16,22-tetraazacyclotetracosan-2,5,8,11,14,17,20,23-octaone] | 0.001 to 0.01 µM |  | 7.58 L/kg | 1 mL/min/kg | 163 h | 39 ng/mL | 4% |  |
| CC(C)C[C@H]1C(=O)O[C@H](Cc2ccc(Cn3nc(C(F)(F)F)cc3C(F)(F)F)cc2)C(=O)N(C)[C@@H](CC(C)C)C(=O)O[C@H](C)C(=O)N(C)[C@@H](CC(C)C)C(=O)O[C@H](Cc2ccc(Cn3nc(C(F)(F)F)cc3C(F)(F)F)cc2)C(=O)N(C)[C@@H](CC(C)C)C(=O)O[C@H](C)C(=O)N1C [Example 1b-15, (3S,6R,9S,12R,15S,18R,21S,24R)-6,18-bis[(4-{[3,5-bis(trifluoromethyl)-1H-pyrazol-1-yl]methyl}phenyl)methyl]-4,10,12,16,22,24-hexamethyl-3,9,15,21-tetrakis(2-methylpropyl)-1,7,13,19-tetraoxa-4,10,16,22-tetraazacyclotetracosan-2,5,8,11,14,17,20,23-octaone] | ≤ 0.0001 µM |  | 0.32 L/kg | 0.05 mL/min/kg | 67 h | 5 ng/mL | 0.2% | 0.01 to 0.1 µM |
| CC(C)C[C@H]1C(=O)O[C@H](Cc2ccc(Cn3ccc(C(F)(F)F)n3)cc2)C(=O)N(C)[C@@H](CC(C)C)C(=O)O[C@H](C)C(=O)N(C)[C@@H](CC(C)C)C(=O)O[C@H](Cc2ccc(Cn3ccc(C(F)(F)F)n3)cc2)C(=O)N(C)[C@@H](CC(C)C)C(=O)O[C@H](C)C(=O)N1C [Example 1b-69, (3S,6R,9S,12R,15S,18R,21S,24R)-3,9,15,21-tetraisobutyl-4,6,10,16,18,22-hexamethyl-12,24-bis(4-((3-(trifluoromethyl)-1H-pyrazol-1-yl)methyl)benzyl)-1,7,13,19-tetraoxa-4,10,16,22-tetraazacyclotetracosan-2,5,8,11,14,17,20,23-octaone] | 0.001 to 0.01 µM |  | 3.81 L/kg | 1 mL/min/kg | 256 h | 27 ng/mL | 5% | 0.01 to 0.1 µM |
